Laboratory results published in patent publication US20230137943A1, “PHOTOPROXIMITY PROFILING OF PROTEIN-PROTEIN INTERACTIONS IN CELLS” (The University of Chicago, priority 2019, published 2023).
pEC50: −log10 of the molar value.

Assays:
[1] = system: HEK293T cells stably expressing SNAP-FLAG; assay: Viability assay (CellTiter-Glo, relative ATP content); type: cell-based, human; conditions: 2 hours at 37° C.
Procedure: Viability assay: HEK293T cells stably expressing SNAP-FLAG were seeded with at 5,000 cells per well in 50 μL DMEM in a 96-well plate. Twenty-four hours later, cells were treated with a varying concentration (0, 0.5, 1, 5, 15, 45 μM in sextuplicate) of photoproximity probe PP1 in a total volume of 100 μL DMEM. After 2 hours at 37° C., a 100 μL of CellTiter-Glo® (Promega Corporation, Madison, Wis., United States of America; 5-fold DPBS dilution) was added and the plate imaged using a SYNERGY™ Neo HST plate reader (BioTek, Winooski, Vt., United States of America).
To determine if AC1 affects cell viability, a viability assay was performed. Briefly, HEK293T cells stably expressing Snap-Flag were seeded at 5,000 cells per well in 100 μL DMEM in a 96-well plate. Upon >90% confluency, media was gently removed and cells were treated with a varying concentration (0, 1, 5, 10, 15, 20, 50 uM) in sextuplicate of AC-1 in a total volume of 75 μL DMEM. After 2 hours at 37° C., media was aspirated and cells were gently washed with […] of serum free DMEM. […] Luminescence was recorded using a SYNERGY™ Neo HST plate reader (BioTek, Winooski, Vt., United States of America).
HEK293T cells stably expressing Snap-Flag were seeded at 5,000 cells per well in 100 μL DMEM in a 96-well plate. […] Luminescence was recorded using a SYNERGY™ Neo HST plate reader (BioTek, Winooski, Vt., United States of America).

[2] = target: T1, FLAG-tagged SNAP-Tag protein (SNAP-FLAG) (Homo sapiens, UniProt P16455, A127T/A154D/C150Q/C62A/E30R/G131K/G132T/G153L/K125A/K32I/L33F/M134L/N157G/Q115S/Q116H/R128A/R135S/S151G/S152D/S159E); assay: PP1 dose response: covalent labeling of SNAP-FLAG in live cells (Western blot); type: cell-based; conditions: HEK293T cells stably expressing SNAP-FLAG, increasing doses for two hours, not irradiated
T1 construct: expressed in transfected cells
T1 sequence (P16455 1-182 E30R/K32I/L33F/C62A/Q115S/Q116H/K125A/A127T/R128A/G131K/G132T/M134L/R135S/C150Q/S151G/S152D/G153L/A154D/N157G/S159E limits assumed): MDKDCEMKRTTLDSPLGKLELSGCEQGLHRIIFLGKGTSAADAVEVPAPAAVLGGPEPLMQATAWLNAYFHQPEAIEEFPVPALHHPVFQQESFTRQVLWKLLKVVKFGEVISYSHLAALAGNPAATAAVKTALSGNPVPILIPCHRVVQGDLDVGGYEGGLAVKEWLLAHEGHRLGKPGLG
Procedure: PP1 close response and viability assay: Dose response—Each well of a 6-well plate was seeded with 300,000 HEK293T cells stably expressing either SNAP-FLAG or KEAP-SNAP. After reaching ˜90% confluency the growth media was removed, cells washed with DPBS, and treated with varying concentrations (0, 0.5, 1, 5, 15, 45 μM) of photoproximity probe PP1 in 500 μL serum-free DMEM for 2 hours at 37° C. Post treatment, media was aspirated and non-reacted probe washed out with 3 mL full DMEM over 40 minutes, changing the media twice. Cells were harvested, washed, and lysed in DPBS containing protease inhibitor using a tip sonicator. Lysate was normalized to 1 mg/mL then diluted with loading buffer and run on SDS-PAGE gel that was transferred by western blot to nitrocellulose. The nitrocellulose membrane was stained for biotin and Flag-Tag using streptavidin IR dye (Li-cor #926-32230; Li-cor Biosciences, Lincoln, Nebr., United States of America) and anti-Flag (Sigma #F3165, Sigma-Aldrich, St. Louis, Mo., United States of America; Li-cor #926-68072, Li-cor Biosciences, Lincoln, Nebr., United States of America). Fluorescence images were collected using an Odyssey infrared imager (Li-cor Biosciences, Lincoln, Nebr., United States of America). […]

pEC50 [2] | Structure (SMILES) | Cell growth or viability ([1]; AC1 0-50 uM) | Cell viability ([1]; PP1 0-45 μM (saturating doses))
– | COc1cc(COC(=O)NC(CCCCNC(=O)CCC2(C)N=N2)C(=O)NCCCCC2SCC3NC(=O)NC32)c([N+](=O)[O-])cc1OCCCC(=O)NCc1ccc(COc2nc(N)nc3[nH]cnc23)cc1 (stereo not drawn) [AC1] | does not impair cell growth or viability | –
5.35 | COc1cc(C(C)OC(=O)NC(CCCCNC(=O)CCC2(C)N=N2)C(=O)NCCCCCNC(=O)CCCCC2SCC3NC(=O)NC32)c([N+](=O)[O-])cc1OCCCC(=O)NCc1ccc(COc2nc(N)nc3[nH]cnc23)cc1 (stereo not drawn) [PP1] | – | not affected
